Results taken from patent US20240391882A1 (Mirati Therapeutics, Inc., priority 2023, published 2024).

Legend:
[1] = test system: pAKT in T47D (PI3Kα H1047R mutant) cells; test: Inhibition of pAKT (alphaLISA Surefire Ultra AKT 1/2/3 pS473) in T47D cells; assay type: cell-based; details: Homo sapiens; T47D (PI3Kα H1047R mutant) cells, 24 hr compound incubation, alphaLISA pS473; read-out: T47D (H1047R) pAKT 24 hr (IC50)
Description: The ability of a compound of Formula (I) to inhibit the formation of pAKT was measured using alphaLISA Surefire Ultra AKT 1/2/3 (pS473) Assay Kit (#ALSU-PAKT-B50K) was obtained from Perkin Elmer (Waltham, MA).
To prepare assay plates for pAKT alphaLISA assays, cells were trypsinized, resuspended in fresh media, and viable cells were counted utilizing trypan blue exclusion. Prior to seeding, cells were washed with PBS and resuspended in HBSS (Gibco, #14025092). T47D (12,000/w), SKBR3 (12,000/w), or MKN1 (24,000/w) cells were seeded at 12 μl per well in a solid white flat bottom 384 cell culture plate (Perkin Elmer #6007680).
Immediately after seeding, cells were dosed using an Echo Liquid Handler (Beckman Coulter) with compounds at a 10.4 μm starting concentration and serially diluted (1:4) for a total of 10 concentrations. 14 vehicle (DMSO) and 14 positive control (Alpelisib @3.125 μm) wells were included on each assay plate. Cells were incubated with the compounds (solubilized in DMSO) for approximately 24 hours at 37° C. After 24 hours of treatment, cells were lysed with 3 μl of the 5× lysis buffer (provided and incubated at room temperature for 15 min on a microtiter plate shaker). Once cells were sufficiently lysed, 7.5 μl of the acceptor bead mix (made using the manufacturers recommended dilutions) was added to each well and left on the microtiter plate shaker for 1 min prior to incubating plates at room temperature for 1 hour, in the absence of light. After 1 hour of incubation with the acceptor bead mix, 7.5 μl of the donor bead mix (made using the manufacturers recommended dilutions) was added to each well and left on the microtiter plate shaker for 1 min prior to incubating plates at room temperature overnight in the absence of light. Plates were then imaged the following day using a CLARIOstar microplate reader (BMG Labtech, Germany).
Percent of control values were calculated by subtracting the average signal from the positive control (alpelisib) treated wells from all treated wells (including DMSO control wells) and then divided by the average signal from the vehicle DMSO treated control wells. Percent of vehicle control values were plotted as log(inhibitor) vs. response—Variable slope (four parameters) for curve fitting and IC50 values were determined using XLfit.

[2] = test system: T47D (PI3Kα H1047R mutant) cells; test: Cell viability (CellTiter-Glo 2.0) in T47D cells; assay type: cell-based; details: Homo sapiens, T47D, 72 h, approximately 72 hours
Description: This Example illustrates that representative compounds of the invention decrease the viability of cells.
The ability of a compound of Formula (I) to decrease the viability of cells was measured using CellTiter-Glo 2.0 (CTG) Luminescent Cell Viability Assay (#G9241) obtained from Promega (Madison, WI).
To prepare assay plates for viability assays, cells were trypsinized, resuspended in fresh media, and viable cells were counted utilizing trypan blue exclusion. T47D, SKBR3, or MKN1 cells were seeded at 1000 cells in 30 μl per well in a solid white flat bottom 384 cell culture plate (Perkin Elmer #6007680) and incubated at 37° C. overnight.
Assay day 1, cells were dosed using an Echo Liquid Handler (Beckman Coulter) with compounds at a 10 μm starting concentration and serially diluted (1:4) for a total of 10 concentrations. Cells were incubated for approximately 72 hours with the compounds (solubilized in DMSO) at 37° C. After 72 hours of treatment, cell plates were equilibrated to room temperature before adding 15 μl of CTG to each well, plates were then covered in aluminum foil to protect from light, incubated at room temperature for 30 minutes on a microtiter plate shaker, and luminescence readings were collected using a CLARIOstar microplate reader (BMG Labtech, Germany). Percent of vehicle control values were plotted as log(inhibitor) vs. response—Variable slope (four parameters) for curve fitting and IC50 values were determined using XLfit.

| SMILES | IC50 [1] [nM] | IC50 [2] [nM] |
| --- | --- | --- |
| CO[C@H]1CN(c2nc3c([C@@H](C)Nc4ccc(Cl)nc4C(=O)O)cc(C)cc3nc2C#N)CC1(F)F (single isomer, unassigned) [Example 171] | – | 178 |
| CO[C@@H]1CN(c2nc3c([C@@H](C)Nc4ccc(Cl)nc4C(=O)O)cc(C)cc3nc2C#N)CC1(F)F (single isomer, unassigned) [Example 172] | – | 170 |
| COC(=O)c1nc(Cl)ccc1N[C@H](C)c1cc(C)cc2nc(C#N)c(N3CC[C@@](C)(F)C3)nc12 (single isomer, unassigned) [Example 180] | 1.6 | 57.8 |
| COC(=O)c1nc(Cl)ccc1N[C@H](C)c1cc(C)cc2nc(C#N)c(N3CC[C@](C)(F)C3)nc12 (single isomer, unassigned) [Example 181] | 1.7 | 44 |
| Cc1cc([C@@H](C)Nc2ccc(Cl)nc2C(=O)O)c2nc(N3CCc4cc(C#N)ccc4C3)c(C#N)nc2c1 [Example 85, (R)-6-chloro-3-((1-(2-cyano-3-(6-cyano-3,4-dihydroisoquinolin-2(1H)-yl)-7-methylquinoxalin-5-yl)ethyl)amino)picolinic acid] | 2 | – |
| Cc1cc([C@@H](C)Nc2nccnc2C(=O)O)c2nc(N3CCC(F)(F)CC3)c(C#N)nc2c1 [Example 113, (R)-3-((1-(2-cyano-3-(4,4-difluoropiperidin-1-yl)-7-methylquinoxalin-5-yl)ethyl)amino)pyrazine-2-carboxylic acid] | > 10400 | 1170 |
| Cc1cc([C@@H](C)Nc2ccc(Cl)nc2C(=O)O)c2nc(N(C)CCC(=O)N(C)C)c(C#N)nc2c1 [Example 114, (R)-6-chloro-3-((1-(2-cyano-3-((3-(dimethylamino)-3-oxopropyl)(methyl)amino)-7-methylquinoxalin-5-yl)ethyl)amino)picolinic acid] | 11 | 190 |
| Cc1cc([C@@H](C)Nc2cccnc2C(=O)O)c2nc(N3CCC(F)(F)CC3)c(C#N)nc2c1 [Example 118, (R)-3-((1-(2-cyano-3-(4,4-difluoropiperidin-1-yl)-7-methylquinoxalin-5-yl)ethyl)amino)picolinic acid] | – | 383 |
| Cc1cc([C@@H](C)Nc2cscc2C(=O)O)c2nc(N3CCC(F)(F)CC3)c(C#N)nc2c1 [Example 121, (R)-4-((1-(2-cyano-3-(4,4-difluoropiperidin-1-yl)-7-methylquinoxalin-5-yl)ethyl)amino)thiophene-3-carboxylic acid] | – | 651 |
| COCCNc1nc2c([C@@H](C)Nc3ccc(Cl)nc3C(=O)O)cc(C)cc2nc1C#N [Example 132, (R)-6-chloro-3-((1-(2-cyano-3-((2-methoxyethyl)amino)-7-methylquinoxalin-5-yl)ethyl)amino)picolinic acid] | 0.9 | – |
| Cc1cc([C@@H](C)Nc2ccc(Cl)nc2C(=O)O)c2nc(N3CCN(c4ccc(C(F)(F)F)nc4)CC3)c(C#N)nc2c1 [Example 133, (R)-6-chloro-3-((1-(2-cyano-7-methyl-3-(4-(6-(trifluoromethyl)pyridin-3-yl)piperazin-1-yl)quinoxalin-5-yl)ethyl)amino)picolinic acid] | 0.8 | – |
| Cc1cc([C@@H](C)Nc2ccccc2C(=O)O)c2nc(N3CC4(CCO4)C3)c(C#N)nc2c1 [Example 134, (R)-2-((1-(2-cyano-7-methyl-3-(1-oxa-6-azaspiro[3.3]heptan-6-yl)quinoxalin-5-yl)ethyl)amino)benzoic acid] | 10.9 | – |
| Cc1cc([C@@H](C)Nc2ccc(Cl)nc2C(=O)O)c2nc(NCC3COC3)c(C#N)nc2c1 [Example 135, (R)-6-chloro-3-((1-(2-cyano-7-methyl-3-((oxetan-3-ylmethyl)amino)quinoxalin-5-yl)ethyl)amino)picolinic acid] | 19.2 | – |

Second part, the compound after the results:

| IC50 [1] [nM] | IC50 [2] [nM] | SMILES |
| --- | --- | --- |
| 2.1 | 55 | COC[C@@]1(F)CCN(c2nc3c([C@@H](C)Nc4ccc(Cl)nc4C(=O)O)cc(C)cc3nc2C#N)C1 (single isomer, unassigned) [Example 164] |
| 5.6 | 97 | COC[C@]1(F)CCN(c2nc3c([C@@H](C)Nc4ccc(Cl)nc4C(=O)O)cc(C)cc3nc2C#N)C1 (single isomer, unassigned) [Example 165] |
| – | 108 | Cc1cc([C@@H](C)Nc2ccc(Cl)nc2C(=O)O)c2nc(N3CCC(F)(F)[C@@H]3C)c(C#N)nc2c1 (single isomer, unassigned) [Example 169] |
| – | 93.3 | Cc1cc([C@@H](C)Nc2ccc(Cl)nc2C(=O)O)c2nc(N3CCC(F)(F)[C@H]3C)c(C#N)nc2c1 (single isomer, unassigned) [Example 170] |
| – | 59.9 | CCOCC1CCN(c2nc3c([C@@H](C)Nc4ccc(Cl)nc4C(=O)O)cc(C)cc3nc2C#N)CC1 [Example 119, (R)-6-chloro-3-((1-(2-cyano-3-(4-(ethoxymethyl)piperidin-1-yl)-7-methylquinoxalin-5-yl)ethyl)amino)picolinic acid] |
| – | 65.6 | Cc1cc([C@@H](C)Nc2ccc(Cl)nc2C(=O)O)c2nc(N3CC4(CCO4)C3)c(C#N)nc2c1 [Example 130, (R)-6-chloro-3-((1-(2-cyano-7-methyl-3-(1-oxa-6-azaspiro[3.3]heptan-6-yl)quinoxalin-5-yl)ethyl)amino)picolinic acid] |
| 2.2 | – | Cc1cc([C@@H](C)Nc2ccc(Cl)nc2C(=O)O)c2nc(N3CC(C(F)(F)F)C3)c(C#N)nc2c1 [Example 131, (R)-6-chloro-3-((1-(2-cyano-7-methyl-3-(3-(trifluoromethyl)azetidin-1-yl)quinoxalin-5-yl)ethyl)amino)picolinic acid] |
| 0.7 | – | Cc1cc([C@@H](C)Nc2ccc(Cl)nc2C(=O)O)c2nc(N3CCC(n4cccn4)CC3)c(C#N)nc2c1 [Example 136, (R)-3-((1-(3-(4-(1H-pyrazol-1-yl)piperidin-1-yl)-2-cyano-7-methylquinoxalin-5-yl)ethyl)amino)-6-chloropicolinic acid] |
| 1.3 | – | CC(=O)N(C)C1CCN(c2nc3c([C@@H](C)Nc4ccc(Cl)nc4C(=O)O)cc(C)cc3nc2C#N)CC1 [Example 137, (R)-6-chloro-3-((1-(2-cyano-7-methyl-3-(4-(N-methylacetamido)piperidin-1-yl)quinoxalin-5-yl)ethyl)amino)picolinic acid] |
| 0.8 | – | Cc1cc([C@@H](C)Nc2ccc(Cl)nc2C(=O)O)c2nc(N3CCC(n4cc(C)cn4)CC3)c(C#N)nc2c1 [Example 138, (R)-6-chloro-3-((1-(2-cyano-7-methyl-3-(4-(4-methyl-1H-pyrazol-1-yl)piperidin-1-yl)quinoxalin-5-yl)ethyl)amino)picolinic acid] |
| 2.1 | – | Cc1cc([C@@H](C)Nc2ccc(Cl)nc2C(=O)O)c2nc(N3CCC(n4cc(C(F)(F)F)cn4)CC3)c(C#N)nc2c1 [Example 139, (R)-6-chloro-3-((1-(2-cyano-7-methyl-3-(4-(4-(trifluoromethyl)-1H-pyrazol-1-yl)piperidin-1-yl)quinoxalin-5-yl)ethyl)amino)picolinic acid] |
| – | 45.8 | Cc1cc([C@@H](C)Nc2ccc(Cl)nc2C(=O)O)c2nc(N3CCO[C@H](C)C3)c(C#N)nc2c1 [Example 168, 6-chloro-3-(((R)-1-(2-cyano-7-methyl-3-((R)-2-methylmorpholino)quinoxalin-5-yl)ethyl)amino)picolinic acid] |
| – | 344 | Cc1cc([C@@H](C)Nc2ccc(Cl)nc2C(=O)O)c2nc(N3CC[C@H](S(C)(=O)=O)C3)c(C#N)nc2c1 [Example 175, 6-chloro-3-(((R)-1-(2-cyano-7-methyl-3-((S)-3-(methylsulfonyl)pyrrolidin-1-yl)quinoxalin-5-yl)ethyl)amino)picolinic acid] |
